Laboratory results reported in publication PMC8175350, “Drug repurposing screens identify chemical entities for the development of COVID-19 interventions” (Nature Communications, 2021).
Counter-ions that a name gives are not always drawn. Like-named read-outs stand apart in the source and are kept apart here.

Experiments:
[1] = Uninfected HeLa-ACE2 24 h live/dead cytotoxicity counter screen; assay type: cell-based, human; conditions: human, uninfected HeLa-ACE2 cells
HeLa-ACE2 cells [2] = test: as above; assay type: cell-based, human; conditions: for HeLa-ACE2 uninfected cytotoxicity Sinf Average: curve-fit effect at infinite concentration; for HeLa-ACE2 uninfected cytotoxicity Sinf Average (%): Sinf average of the curves
SARS-CoV-2 [3] = test: microbe, parasite or virus in culture; assay type: cell-based
in vitro = conditions: human; for CC50: unrounded geometric mean
Calu-3 cells [4] = test: cells; conditions: Homo sapiens; for Emax: Calu-3, 48 h
HeLa-ACE2 cells [5] = test: cells; conditions: Homo sapiens; for Emax: HeLa-ACE2, 24 h, read-out: HeLa-ACE2 cell count Sinf Average
SARS-CoV-2 [6] = test: microbe, parasite or virus in culture; assay type: cell-based; conditions: for Emax: Severe acute respiratory syndrome coronavirus 2, Calu-3, 48 h
Calu-3 cells [7] = conditions: for Calu-3 uninfected cytotoxicity Sinf Average / Calu-3 uninfected cytotoxicity Sinf Average (%): human
[8] = uninfected cells, Fig. 2b group, read-out: HeLa-ACE2 CC50
[9] = unrounded geometric mean, read-out: HeLa-ACE2 uninfected cytotoxicity CC50 GeoMean
[10] = Severe acute respiratory syndrome coronavirus 2, HeLa-ACE2, unrounded geometric mean, read-out: HeLa-ACE2 CoV-2 EC50 GeoMean
[11] = Calu-3 uninfected cytotoxicity CC50 GeoMean
[12] = read-out: Calu-3 cell count Sinf Average
[13] = Calu-3, read-out: Calu-3 cell count EC50 GeoMean, unrounded geometric mean
[14] = HeLa-ACE2, read-out: HeLa-ACE2 cell count EC50 GeoMean, unrounded geometric mean
[15] = curve-fit effect at infinite concentration, average, read-out: Calu-3 CoV-2 Sinf Average
[16] = Severe acute respiratory syndrome coronavirus 2, Calu-3, unrounded geometric mean, read-out: Calu-3 CoV-2 EC50 GeoMean
[17] = geometric mean of replicates, read-out: HeLa-ACE2 uninfected cytotoxicity CC50 GeoMean
[18] = Severe acute respiratory syndrome coronavirus 2, HeLa-ACE2, geometric mean of replicates, read-out: HeLa-ACE2 CoV-2 EC50 GeoMean
[19] = Calu-3 uninfected cytotoxicity CC50 GeoMean (µM)
[20] = read-out: Calu-3 cell count Sinf Average (%)
[21] = Calu-3, read-out: Calu-3 cell count EC50 GeoMean (µM), geometric mean of replicates
[22] = HeLa-ACE2, read-out: HeLa-ACE2 cell count EC50 GeoMean (µM), geometric mean of replicates
[23] = Sinf average of the curves, read-out: Calu-3 CoV-2 Sinf Average (%)
[24] = Severe acute respiratory syndrome coronavirus 2, Calu-3, geometric mean of replicates, read-out: Calu-3 CoV-2 EC50 GeoMean

CC[C@H]1CN2CCc3cc(OC)c(OC)cc3[C@@H]2C[C@@H]1C[C@H]1NCCc2cc(OC)c(OC)cc21 [Emetine]
CC50 at 24 h [1, 8]: ≤ 3 µM | CC50 at 24 h [1, 9]: 0.34 µM | HeLa-ACE2 uninfected cytotoxicity Sinf Average (HeLa-ACE2 cells [2]): -99% | Emax (SARS-CoV-2 [3]; Severe acute respiratory syndrome coronavirus 2, HeLa-ACE2, 24 h, curve-fit effect at infinite concentration, average, read-out: HeLa-ACE2 CoV-2 Sinf Average): 100% | EC50 (SARS-CoV-2 [3]; [10]): 0.0601 µM | CC50 (in vitro; [11]): > 8.87 µM | Emax (Calu-3 cells [4]; [12]): 78% | EC50 (Calu-3 cells [4]; [13]): > 3.56 µM | Emax (HeLa-ACE2 cells [5]): 98% | EC50 (HeLa-ACE2 cells [5]; [14]): 0.783 µM | Emax (SARS-CoV-2 [6]; [15]): 100% | EC50 (SARS-CoV-2 [6]; [16]): 0.444 µM | Calu-3 uninfected cytotoxicity Sinf Average (Calu-3 cells [7]): -47%

NC(N)=Nc1ncc(Cl)c2ccc(-c3cccc(C(=O)O)c3)cc12 [UK-356202]
CC50 at 24 h [1, 17]: > 39.8 µM | EC50 (SARS-CoV-2 [3]; [18]): > 9.59 µM | CC50 at 48 h (in vitro; [19]): > 29.9 µM | Emax (Calu-3 cells [4]; [20]): 98% | EC50 (Calu-3 cells [4]; [21]): > 7.28 µM | EC50 (HeLa-ACE2 cells [5]; [22]): > 9.59 µM | Emax (SARS-CoV-2 [6]; [23]): 85% | EC50 (SARS-CoV-2 [6]; [24]): 1.92 µM | uninfected Calu-3 CC50 [μM] (Calu-3 cells [7]): > 29.875 ×÷ 1 (n=2) μM

CSc1ccc(CN2CCCC(Nc3ccc4[nH]ncc4c3)C2)cc1 (stereo not shown) [INS-117548]
CC50 at 24 h [1, 17]: > 39.8 µM | HeLa-ACE2 uninfected cytotoxicity Sinf Average (%) (HeLa-ACE2 cells [2]): -100% | EC50 (SARS-CoV-2 [3]; [18]): > 9.59 µM | CC50 at 48 h (in vitro; [19]): > 29.9 µM | Emax (Calu-3 cells [4]; [20]): 55% | EC50 (Calu-3 cells [4]; [21]): 0.31 µM | EC50 (HeLa-ACE2 cells [5]; [22]): > 9.59 µM | Emax (SARS-CoV-2 [6]; [23]): 77% | EC50 (SARS-CoV-2 [6]; [24]): > 3.55 µM | uninfected Calu-3 CC50 [μM] (Calu-3 cells [7]): > 29.875 ×÷ 1 (n=2) μM | Calu-3 uninfected cytotoxicity Sinf Average (%) (Calu-3 cells [7]; 48 h): -92%

CC(=N)N1CCC(Oc2ccc(N(Cc3ccc4ccc(C(=N)N)cc4c3)S(=O)(=O)CC(=O)O)cc2)CC1 [YM 60828]
CC50 at 24 h [1, 17]: > 39.8 µM | EC50 (SARS-CoV-2 [3]; [18]): > 9.59 µM | CC50 at 48 h (in vitro; [19]): > 29.9 µM | Emax (Calu-3 cells [4]; [20]): 100% | EC50 (Calu-3 cells [4]; [21]): 6.81 µM | EC50 (HeLa-ACE2 cells [5]; [22]): > 9.59 µM | EC50 (SARS-CoV-2 [6]; [24]): 3.18 µM | uninfected Calu-3 CC50 [μM] (Calu-3 cells [7]): > 29.867 ×÷ 1 (n=3) μM

CC(=O)N1C[C@H](O)C[C@H]1C(=O)N[C@@H](CCCNC(=N)N)C(=O)c1nc2ccccc2s1 [RWJ-56423]
CC50 at 24 h [1, 17]: > 39.8 µM | CC50 at 24 h ([1]; reconfirmed hits, read-out: HeLa-ACE2 Uninf. cells CC50): > 40 µM | EC50 (SARS-CoV-2 [3]; Severe acute respiratory syndrome coronavirus 2, HeLa-ACE2, reconfirmed hits, read-out: HeLa-ACE2 SARS-CoV-2 EC50): > 9.6 µM | EC50 (SARS-CoV-2 [3]; [18]): > 9.59 µM | CC50 at 48 h (in vitro; Calu-3 Uninf. cells CC50 (µM)): > 30 µM | CC50 at 48 h (in vitro; [19]): > 29.9 µM | Emax (Calu-3 cells [4]; [20]): 100% | EC50 (Calu-3 cells [4]; [21]): 2.85 µM | EC50 (HeLa-ACE2 cells [5]; [22]): > 9.59 µM | Emax (SARS-CoV-2 [6]; [23]): 89% | EC50 (SARS-CoV-2 [6]; [24]): 1.23 µM | EC50 (SARS-CoV-2 [6]; Severe acute respiratory syndrome coronavirus 2, Calu-3, reconfirmed hits, read-out: Calu-3 SARS-CoV-2 EC50): 1.23 µM | uninfected Calu-3 CC50 [μM] (Calu-3 cells [7]): > 29.867 ×÷ 1 (n=3) μM

O=c1[nH]c2ccc(C(F)(F)F)cc2c(-c2cc(Cl)ccc2O)c1CCO [BMS-223131]
CC50 at 24 h [1, 17]: 21.4 µM | HeLa-ACE2 uninfected cytotoxicity Sinf Average (%) (HeLa-ACE2 cells [2]): -100% | EC50 (SARS-CoV-2 [3]; [18]): > 9.59 µM | CC50 at 48 h (in vitro; [19]): > 29.9 µM | Emax (Calu-3 cells [4]; [20]): 100% | EC50 (Calu-3 cells [4]; [21]): > 9.98 µM | EC50 (HeLa-ACE2 cells [5]; [22]): > 9.59 µM | Emax (SARS-CoV-2 [6]; [23]): 100% | EC50 (SARS-CoV-2 [6]; [24]): 5.14 µM | uninfected Calu-3 CC50 [μM] (Calu-3 cells [7]): > 29.867 ×÷ 1 (n=3) μM | Calu-3 uninfected cytotoxicity Sinf Average (%) (Calu-3 cells [7]; 48 h): -100%

CN(C)C(=O)COC(=O)Cc1ccc(OC(=O)c2ccc(NC(=N)N)cc2)cc1 [Camostat mesylate]
CC50 at 24 h [1, 9]: > 39.8 µM | EC50 (SARS-CoV-2 [3]; [10]): > 9.59 µM | CC50 (in vitro; [11]): > 29.9 µM | Emax (Calu-3 cells [4]; [12]): 78% | EC50 (Calu-3 cells [4]; [13]): 0.0913 µM | EC50 (HeLa-ACE2 cells [5]; [14]): > 9.59 µM | Emax (SARS-CoV-2 [6]; [15]): 89% | EC50 (SARS-CoV-2 [6]; [16]): 0.0536 µM

CCCCCCCC/C=C/CCCCCCCC(=O)OC[C@H]1O[C@@H](n2ccc(N)nc2=O)C(F)(F)[C@@H]1O [Gemcitabine elaidate]
CC50 at 24 h [1, 8]: ≤ 3 µM | CC50 at 24 h [1, 9]: < 0.00582 µM | HeLa-ACE2 uninfected cytotoxicity Sinf Average (HeLa-ACE2 cells [2]): -53% | EC50 (SARS-CoV-2 [3]; [10]): > 9.59 µM | CC50 at 48 h (in vitro; [11]): > 29.9 µM | Emax (Calu-3 cells [4]; [12]): 48% | EC50 (Calu-3 cells [4]; [13]): > 3.7 µM | Emax (HeLa-ACE2 cells [5]): 51% | EC50 (HeLa-ACE2 cells [5]; [14]): < 0.0122 µM | Emax (SARS-CoV-2 [6]; [15]): 90% | EC50 (SARS-CoV-2 [6]; [16]): 0.324 µM | uninfected Calu-3 CC50 (Calu-3 cells [7]): > 29.867 ×÷ 1 (n=3) μM | Calu-3 uninfected cytotoxicity Sinf Average (Calu-3 cells [7]; 48 h): -100%

O[C@@H]1CO[C@H]2[C@@H]1OC[C@H]2Oc1nc2nc(-c3ccc(-c4ccccc4)cc3)c(Cl)cc2[nH]1 [MK-8722]
CC50 at 24 h [1, 17]: > 37.4 µM | HeLa-ACE2 uninfected cytotoxicity Sinf Average (%) (HeLa-ACE2 cells [2]): -100% | EC50 (SARS-CoV-2 [3]; [18]): > 9.59 µM | CC50 at 48 h (in vitro; [19]): > 29.9 µM | Emax (Calu-3 cells [4]; [20]): 100% | EC50 (Calu-3 cells [4]; [21]): > 5.66 µM | EC50 (HeLa-ACE2 cells [5]; [22]): > 9.59 µM | Emax (SARS-CoV-2 [6]; [23]): 100% | EC50 (SARS-CoV-2 [6]; [24]): 2.73 µM | uninfected Calu-3 CC50 [μM] (Calu-3 cells [7]): > 29.867 ×÷ 1 (n=3) μM | Calu-3 uninfected cytotoxicity Sinf Average (%) (Calu-3 cells [7]; 48 h): -95%
